Reference: patent US10828301B2, “2,4-pyrimidinediamine compounds and their uses” (Rigel Pharmaceuticals, Inc, priority 2002, dated 2020)

What was measured:
Assay type in all cases: cell-based
Jurkat cells = experiment: Jurkat (T-cell) toxicity, light scatter; settings: Homo sapiens, 18-24 hr, flow cytometric light scatter, read-out: Toxicity Jurkat Light Scat.
Method: Dilute Jurkat cells to 2×10^5 cells/ml in complete RPMI (10% heat-inactivated fetal bovine serum) media and incubate at 37° C., 5% CO2 for 18 hours. Add 65 ul cells at 7.7×10^5 cells/ml to a 96-well V-bottom plate (TC-treated, Costar) containing 65 ul 2× compound (final vehicle concentration is 0.5% DMSO, 1.5% MeOH). Mix, incubate plates for 18-24 hr at 37° C., 5% CO2. Toxicity was assessed by flow cytometric analysis of cellular light scatter

[1] = tested on: cultured human mast cells (CHMC); experiment: CHMC low cell density IgE activation: tryptase and LTC4 assays; settings: Homo sapiens, Mast cell, Low Density CHMC, anti-IgE activation
Outline: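 Degranulation measured after 30 min anti-IgE challenge at 37° C of CHMC plated at 1000-1500 cells/well following 1 h preincubation. Readouts: LTC4 by ELISA on donor-specific diluted supernatants, and tryptase activity from a 30 min room-temperature substrate reaction.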

[2] = tested on: cultured human mast cells (CHMC); experiment: CHMC low cell density ionomycin activation: tryptase assay; settings: Homo sapiens, Mast cell, Low Density CHMC, ionomycin activation
B-cell line BJAB = experiment: BJAB (B-cell) toxicity, light scatter; settings: Homo sapiens; BJAB B-cells, flow cytometric light scatter; read-out: Toxicity BJAB Light Scat.
Method: The B-cell line BJAB was cultured in log phase in RPMI1640+10% heat-inactivated fetal bovine serum, lx L-glutamine, lx penicillin, lx […] and 1× beta-mercaptoethanol at 37° C., 5% CO2. First, BJABs were harvested, spun and resuspended in culture medium to a concentration of 7.7×10^5 cells/mL. 65 uL cells were mixed with 65 uL compound, in duplicate and in the presence of 0.1% DMSO in a V-bottomed 96-well tissue culture plate. Cells were incubated with compound at various dilutions at 37° C., 5% CO2. Toxicity was assessed by flow cytometric analysis of cellular light scatter.

[3] = tested on: basophils in whole human peripheral blood; experiment: Basophil IgE activation: histamine release assay; settings: Homo sapiens, anti-IgE activation
Method: The basophil activation assay was carried out using whole human peripheral blood from donors allergic to dust mites with the majority of the red blood cells removed by dextran sedimentation. Human peripheral blood was mixed 1:1 with 3% dextran T500 and RBCs were allowed to settle for 20-25 min. The upper fraction was diluted with 3 volumes of D-PBS and cells were spun down for 10 min at 1500 rpm, RT. Supernatant was aspirated and cells were washed in an equal volume MT-buffer. Finally, cells were resuspended in MT-buffer containing 0.5% DMSO in the original blood volume. 80 uL cells were mixed with 20 uL compound in the presence of 0.5% DMSO, in triplicate, in a V-bottom 96-well tissue culture plate. A dose range of 8 compound concentrations was tested resulting in a 10-point dose response curve including maximum (stimulated) and minimum (unstimulated) response. […] The cells were stimulated for 30 minutes at 37° C., 5% CO2. The plate was spun for 10 min at 1500 rpm at room temperature and 80 uL the supernatant was harvested for histamine content analysis using the histamine ELISA kit supplied by Immunotech. The ELISA was performed according to supplier's instructions.

[4] = tested on: basophils in whole human peripheral blood; experiment: Basophil ionomycin activation: histamine release assay; settings: Homo sapiens
Method: Assays for ionomycin-induced basophil cell degranulation were carried out as described for the Basophil IgE or Dustmite Activation Assay (Section 6.4.6, supra), with the exception that following incubation with compound, cells were stimulated with 20 μl of 2 μM ionomycin.

[5] = tested on: bone marrow derived mast cells (BMMC); experiment: BMMC high cell density IgE activation: degranulation (hexosiminidase, histamine), leukotriene (LTC4) and cytokine (TNFalpha, IL-6) assays; settings: Mus musculus, anti-IgE activation, hexosaminidase release, read-out: BMMC anti-IgE hexos IC50
Method: After sensitizing, cells are counted, pelleted (1000 rpm, 5-10 minutes), and resuspended at 1-3×10^6 cells/ml in MT buffer. Add 100 ul of cell suspension to each well and 100 ul of compound dilutions. The final vehicle concentration is 0.5% DMSO. Incubate at 37° C. (5% CO2) for 1 hour. After 1 hour of compound treatment, stimulate cells with 6× stimulus (60 ng/ml DNP-BSA). Mix wells with the cells and allow plates to incubate at 37° C. (5% CO2) for one hour. After 1 hour incubation, pellet cells (10 minutes, 1000 RPM) and collect 200 ul per well of the supernatant, being careful not to disturb pellet, and transfer to a clean tube or 96-well plate. Place the supernatant plate on ice. During the 4-5 hour step (see next) perform the hexosiminidase assay. Resuspend cell pellet in 240 ul WEI-conditioned media containing 0.5% DMSO and corresponding concentration of compound. Incubate BMMC cells for 4-5 hours at 37° C. (5% CO2). After incubation, pellet cells (1000 RPM, 10 minutes) and collect 225 ul per well and place in −80° C. until ready to perform ELISAS. ELISAS are performed on appropriately diluted samples (determined empirically for each donor cell population so that the sample measurement falls within the standard curve) following the supplier's instructions.
Add 50 uL of BMMC cell supernatant (see above) to the hexoseaminidase substrate, place at 37° C. for 30 minutes and read the plate at 5, 10, 15, and 30 minutes on a spectrophotometer.

[6] = tested on: ionophore-induced degranulation of mast and/or basophil cells; experiment: Ionophore (ionomycin or A23187)-induced degranulation counter screen; settings: Mus musculus; high density BMMC, ionomycin activation, hexosaminidase release; read-out: BMMC Ionomycin Hexos. IC50
Description: In addition to the FcεRI or FcγRI degranulation pathways discussed above, degranulation of mast and/or basophil cells can be induced by other agents. For example, ionomycin, a calcium ionophore that bypasses the early FcεRI or FcγRI signal transduction machinery of the cell, directly induces a calcium flux that triggers degranulation. Referring again to FIG. 2, activated PLCγ initiates pathways that lead to, among other things, calcium ion mobilization and subsequent degranulation. As illustrated, this Ca^2+ mobilization is triggered late in the FcεRI signal transduction pathway. […] Other ionophores that induce degranulation in this manner include A23187. The ability of granulation-inducing ionophores such as ionomycin to bypass the early stages of the FcεRI and/or FcγRI signaling cascades may be used as a counter screen to identify active compounds of the invention that specifically exert their degranulation-inhibitory activity by blocking or inhibiting the early FcεRI or FcγRI signaling cascades, as discussed above.
Assays suitable for determining the IC50 of ionophore-induced degranulation include any of the previously-described degranulation assays, with the modification that the cells are stimulated or activated with a degranulation-inducing calcium ionophore such as ionomycin or A23187 (A.G. Scientific, San Diego, Calif.) instead of anti-IgE antibodies or an IgE-specific allergen. Specific assays for assessing the ability of a particular 2,4-pyrimidinediamine compound of the invention to inhibit ionophore-induced degranulation are provided in the Examples section.

[7] = LTC4 readout, read-out: CHMC anti-IgE LTC4
[8] = tryptase readout, read-out: CHMC anti-IgE Tryptase
[9] = tryptase readout, read-out: CHMC Ionomycin Tryptase
[10] = hexosaminidase readout, read-out: CHMC anti-IgE Hexos.
[11] = hexosaminidase readout, read-out: CHMC Ionomycin Hexos.

| IC50 [1, 7] | IC50 [1, 8] | IC50 [2, 9] | IC50 [3] | IC50 [4] | IC50 [5] | IC50 [1, 10] | IC50 [2, 11] | Compound | IC50 (Jurkat cells) | IC50 (B-cell line BJAB) | IC50 [6] |
| --- | --- | --- | --- | --- | --- | --- | --- | --- | --- | --- | --- |
|  |  |  | 2.5 µM | > 10 µM | 2.8 µM |  |  | CN(C)c1ccc(Nc2ncc(F)c(Nc3ccc(N(C)C)cc3)n2)cc1 [Compound R926086, N2,N4-Bis[4-(N,N-dimethylamino)phenyl]-5-fluoro-2,4-pyrimidinediamine] |  |  | 7.3 µM |
| 0.76 µM | 0.9 µM | > 10 µM |  |  |  |  |  | Cc1cnc(Nc2cccc(O)c2)nc1Nc1cccc(O)c1 [Compound R926248, N2,N4-Bis(3-hydroxyphenyl)-5-methyl-2,4-pyrimidinediamine] | > 10 µM | > 10 µM |  |
| 0.18 µM | 0.225 µM | > 10 µM |  |  |  |  |  | Oc1cccc(Nc2ncc(Br)c(Nc3cccc(O)c3)n2)c1 [Compound R925778, N2,N4-Bis(3-hydroxyphenyl)-5-bromo-2,4-pyrimidinediamine] | > 10 µM | > 10 µM |  |
|  |  |  | 0.53 µM | > 10 µM | 1.4 µM | 1.43 µM | > 10 µM | COc1ccc(Nc2ncc(F)c(Nc3ccc(OC)cc3)n2)cc1 [Compound R926017, N2,N4-Bis(4-methoxyphenyl)-5-fluoro-2,4-pyrimidinediamine] |  |  | 9.6 µM |
| 0.7 µM | 0.65 µM | > 10 µM |  |  |  |  |  | CC(=O)Oc1cccc(Nc2ncc(F)c(Nc3cccc(OC(C)=O)c3)n2)c1 [Compound R926387, N2,N4-Bis(3-acetyloxyphenyl)-5-fluoro-2,4-pyrimidinediamine] | > 10 µM | > 10 µM |  |
|  | 1.3 µM | 9.8 µM | 1.55 µM | > 10 µM | 3.9 µM | 2.7 µM | > 10 µM | CCOc1ccc(Nc2ncc(F)c(Nc3ccc4c(c3)OCCO4)n2)cc1 [Compound R926211, N2-(4-Ethoxyphenyl)-N4-(3,4-ethylenedioxyphenyl)-5-fluoro-2,4-pyrimidinediamine] |  |  | > 10 µM |
|  |  |  | > 10 µM | > 10 µM | 10 µM |  |  | Fc1cnc(Nc2cccc(Cl)c2)nc1Nc1cccc(Cl)c1 [Compound R926209, N2,N4-Bis(3-chlorophenyl)-5-fluoro-2,4-pyrimidinediamine] |  |  | 9.1 µM |
| 1.59 µM |  |  |  |  | 1.35 µM | 0.761 µM | 6.7 µM | CCOc1ccc(Nc2nc(Nc3cccc(O)c3)ncc2F)cc1 [Compound R926146, N4-(4-Ethoxyphenyl)-N2-(3-hydroxyphenyl)-5-fluoro-2,4-pyrimidinediamine] | > 10 µM | > 10 µM | 5 µM |

More lines, now with the values behind:

| Compound | IC50 [1, 7] | IC50 [1, 8] | IC50 [2, 9] | IC50 [3] | IC50 [4] | IC50 [5] | IC50 [1, 10] | IC50 [2, 11] | IC50 (Jurkat cells) | IC50 (B-cell line BJAB) | IC50 [6] |
| --- | --- | --- | --- | --- | --- | --- | --- | --- | --- | --- | --- |
| Oc1cccc(Nc2nc(Nc3ccc4c(c3)OCCO4)ncc2Br)c1 [Compound R925797, 5-Bromo-N2-(3,4-ethylenedioxyphenyl)-N4-(3-hydroxyphenyl)-2,4-pyrimidinediamine] | 0.28 µM | 0.85 µM | > 10 µM |  |  |  |  |  | > 10 µM | > 10 µM |  |
| Fc1cc(Nc2ncc(F)c(Nc3ccc(C(F)(F)F)c(F)c3)n2)ccc1C(F)(F)F [Compound R926018, N2,N4-Bis(3-fluoro-4-trifluoromethylphenyl)-5-fluoro-2,4-pyrimidinediamine] |  |  |  | > 10 µM | 10 µM | 8.5 µM |  |  |  |  | > 10 µM |
| Oc1cccc(Nc2ccnc(Nc3cccc(O)c3)n2)c1 [Compound R926249, N2,N4-Bis(3-hydroxyphenyl)-2,4-pyrimidinediamine] | 0.25 µM | 0.5 µM | > 10 µM |  |  |  |  |  | > 10 µM | > 10 µM |  |
| COc1ccc(Nc2ncc(F)c(Nc3ccc4c(c3)OCCO4)n2)cc1OC [Compound R926212, N2-(3,4-Dimethoxyphenyl)-N4-(3,4-ethylenedioxyphenyl)-5-fluoro-2,4-pyrimidinediamine] | 0.45 µM | 0.654 µM | > 10 µM | 0.5 µM | > 10 µM | 0.5 µM |  |  |  |  | 5 µM |
| Cc1cccc(Nc2ncc(F)c(Nc3cccc(C)c3)n2)c1 [Compound R092788, N2,N4-bis(3-methylphenyl)-5-fluoro-2,4-pyrimidinediamine] |  |  |  |  |  |  |  |  | > 10 µM | > 10 µM |  |
| Fc1cnc(Nc2ccc(C(F)(F)F)cc2)nc1Nc1ccc(C(F)(F)F)cc1 [Compound R926016, N2,N4-Bis(4-trifluoromethylphenyl)-5-fluoro-2,4-pyrimidinediamine] |  |  |  | > 10 µM | > 10 µM | > 10 µM |  |  |  |  | > 10 µM |
| Fc1cnc(Nc2cccc(OC(F)(F)F)c2)nc1Nc1cccc(OC(F)(F)F)c1 [Compound R926038, N2,N4-Bis(3-trifluoromethoxyphenyl)-5-fluoro-2,4-pyrimidinediamine] |  |  |  | > 10 µM | > 10 µM | > 10 µM |  |  |  |  | > 10 µM |
| CCOc1ccc(Nc2cc(C(=O)OC)nc(Nc3ccc(OCC)cc3)n2)cc1 [Compound R926058, N2,N4-Bis(4-ethoxyphenyl)-6-methoxycarbonyl-2,4-pyrimidinediamine] |  |  |  | > 10 µM | > 10 µM | > 10 µM |  |  |  |  | > 10 µM |
